In one test the target is T1, sGC enzyme (Homo sapiens, UniProt Q02108+Q02153).
T1 construct: host or cells: HEK293 cells expressing GloSensor 40F cGMP
T1 sequence (Q02153 1-619): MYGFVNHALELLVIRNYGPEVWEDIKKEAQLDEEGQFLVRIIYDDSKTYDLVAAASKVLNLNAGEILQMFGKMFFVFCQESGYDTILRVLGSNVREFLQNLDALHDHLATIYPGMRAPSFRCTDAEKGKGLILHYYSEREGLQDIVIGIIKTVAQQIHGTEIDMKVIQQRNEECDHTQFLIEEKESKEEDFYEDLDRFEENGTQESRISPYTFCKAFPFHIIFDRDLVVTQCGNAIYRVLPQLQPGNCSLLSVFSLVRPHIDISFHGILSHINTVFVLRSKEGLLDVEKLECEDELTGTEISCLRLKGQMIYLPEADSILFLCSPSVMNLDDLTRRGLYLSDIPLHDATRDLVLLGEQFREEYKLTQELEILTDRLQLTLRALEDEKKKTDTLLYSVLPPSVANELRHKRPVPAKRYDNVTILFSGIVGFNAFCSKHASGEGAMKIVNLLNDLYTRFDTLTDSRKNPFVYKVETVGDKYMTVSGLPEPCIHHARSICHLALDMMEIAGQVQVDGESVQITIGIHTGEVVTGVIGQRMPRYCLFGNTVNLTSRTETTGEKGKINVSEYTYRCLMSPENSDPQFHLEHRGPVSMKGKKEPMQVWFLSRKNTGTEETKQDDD
T1 sequence (Q02108 1-690): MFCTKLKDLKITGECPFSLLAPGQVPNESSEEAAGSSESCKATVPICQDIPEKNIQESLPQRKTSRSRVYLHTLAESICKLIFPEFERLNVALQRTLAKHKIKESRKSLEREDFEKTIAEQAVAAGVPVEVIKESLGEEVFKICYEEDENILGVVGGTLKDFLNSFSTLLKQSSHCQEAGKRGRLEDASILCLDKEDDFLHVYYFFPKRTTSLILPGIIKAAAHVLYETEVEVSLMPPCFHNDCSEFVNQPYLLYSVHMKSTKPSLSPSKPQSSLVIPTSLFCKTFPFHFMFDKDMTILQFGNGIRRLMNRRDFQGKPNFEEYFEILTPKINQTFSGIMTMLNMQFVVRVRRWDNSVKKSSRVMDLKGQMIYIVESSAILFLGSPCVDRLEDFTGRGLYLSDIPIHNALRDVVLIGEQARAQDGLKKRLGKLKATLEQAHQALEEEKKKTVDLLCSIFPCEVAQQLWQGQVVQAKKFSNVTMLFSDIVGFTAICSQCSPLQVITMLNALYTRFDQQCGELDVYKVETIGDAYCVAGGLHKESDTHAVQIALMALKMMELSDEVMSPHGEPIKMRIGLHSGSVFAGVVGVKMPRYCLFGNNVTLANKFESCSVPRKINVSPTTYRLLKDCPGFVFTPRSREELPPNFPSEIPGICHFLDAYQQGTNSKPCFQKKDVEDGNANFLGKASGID
Nature of the test: cGMP GloSensor cell-based assay, 384-well format. The conditions noted are these: read-out: sGC_HEK_GloSensor EC50/IC50 Abs (Norm) (nM) Binned (~). The source says: Human embryonic kidney cells (HEK293) cells expressing GloSensor™ 40F cGMP (Part No: CS182801, Promega) were used to evaluate the activity of test compounds. The luminescent biosensors (engineered luciferase) that were incorporated into these cells detect cGMP formed by the compounds stimulating the sGC enzyme and emit luminescence.
cGMP GloSensor cells were maintained in Dulbecco's Modification of Eagle's Medium (DMEM) supplemented with fetal bovine serum (FBS) (10% final) and hygromycine (200 ug/ml). The day before assay, cells were plated in DMEM with 10% FBS in a 50 μL volume at a density of 1.5×10^4 cells/well in a poly-D-lysine coated 384-well flat white-bottom plate (Corning Cat No 35661). Cells were incubated overnight at 37° C. in a humidified chamber with 5% CO2. The next day, medium was removed and cells were replaced with 40 ul/well of GloSensor™, 2 mM (Promega Cat No E1291). Cells were treated for 90 minutes at 25° C. to allow the substrate to equilibrate in the cells. Test compounds and Diethylenetriamine NONOate (DETA-NONOate) was diluted to 3 mM (20×) in serum-free CO2 independent medium and serially diluted at 4× dilutions to create 5× dose curve from which 10 ul was added to the wells (x μM concentration for test compound solution and 10 μM concentration for DETA-NONOate solution; wherein x is one of the following final concentrations). • 30000 nM • 7500 nM • 1875 nM • 468.75 nM • 117.19 nM • 29.29 nM • 7.32 nM • 1.83 nM • 0.46 nM • 0.114 nM • 0.029 nM
For the kinetics studies, luminescense was measured right away for 0.2 sec per well with Envision (Perkin Elmer model No). For endpoint SAR screening, data were collected after 55 min incubation at room temperature.
Data analysis was carried out as indicated above in Example 2A.

The target in test [1] is T2, soluble guanylate cyclase (sGC) (Homo sapiens, UniProt Q02108+Q02153).
T2 construct: endogenously expressing soluble guanylate cyclase (sGC); endogenous in cells; host or cells: HEK293
T2 sequence (Q02153 1-619): T1 sequence (Q02153 1-619)
T2 sequence (Q02108 1-690): T1 sequence (Q02108 1-690)
Nature of the test: sGC-HEK-cGMP assay with LC/MS detection. Type of test: cell-based. Conditions: HEK293 whole cells, LC/MS detection of cGMP, 10 μM DETA-NONOate; 50% of high control response (30 μM Compound Y); read-out: Absolute EC50 (nM)- binned (~).

Take `O[C@@H]1CN(c2nc(-c3cc(-c4ccon4)n(Cc4ccccc4F)n3)ncc2F)C[C@H]1O` (racemic) [Compound 167, trans-1-(5-fluoro-2-(1-(2-fluorobenzyl)-5-(isoxazol-3-yl)-1H-pyrazol-3-yl)pyrimidin-4-yl)pyrrolidine-3,4-diol]: the EC50 at sGC enzyme was less than 100 nM.
The same measure, in the same setting: for `O=c1[nH]c(-c2cc(-c3ccsn3)n(Cc3ccccc3F)n2)ncc1F` [Compound 111] the value was less than 100 nM; for `O=c1[nH]c(-c2cc(-c3ccon3)n(CCC(F)(F)C(F)(F)F)n2)ncc1F` [Compound 128, 5-fluoro-2-(5-(isoxazol-3-yl)-1-(3,3,4,4,4-pentafluorobutyl)-1H-pyrazol-3-yl)pyrimidin-4(3H)-one], greater than 1000 nM; for `CC(C)(C)OC(=O)C[C@H]1C[C@@H](CCNc2nc(-c3cc(-c4ccon4)n(Cc4ccccc4F)n3)ncc2F)OC(C)(C)O1` [Compound 132], less than 100 nM.
With `O=C1C[C@H](O)C[C@@H](CCNc2nc(-c3cc(-c4ccon4)n(Cc4ccccc4F)n3)ncc2F)O1` [Compound 133, (4R,6R)-6-(2-((5-fluoro-2-(1-(2-fluorobenzyl)-5-(isoxazol-3-yl)-1H-pyrazol-3-yl)pyrimidin-4-yl)amino)ethyl)-4-hydroxytetrahydro-2H-pyran-2-one], the EC50 on sGC enzyme was less than 100 nM.
Consider `O=C(O)C[C@H](O)C[C@H](O)CCNc1nc(-c2cc(-c3ccon3)n(Cc3ccccc3F)n2)ncc1F` [Compound 134, (3R,5R)-7-((5-fluoro-2-(1-(2-fluorobenzyl)-5-(isoxazol-3-yl)-1H-pyrazol-3-yl)pyrimidin-4-yl)amino)-3,5-dihydroxyheptanoic acid], for which the EC50 at sGC enzyme lay within 100 to 1000 nM.
Turning to `Nc1ccc(CNc2nc(-c3cc(-c4ccon4)n(Cc4ccccc4F)n3)ncc2F)cc1O` [Compound 159, 2-amino-5-(((5-fluoro-2-(1-(2-fluorobenzyl)-5-(isoxazol-3-yl)-1H-pyrazol-3-yl)pyrimidin-4-yl)amino)methyl)phenol], the EC50 in test [1] was greater than 30000 nM.
Take `O=S(=O)(Nc1ccc(CNc2nc(-c3cc(-c4ccon4)n(Cc4ccccc4F)n3)ncc2F)cc1O)C1CC1` [Compound 160, N-(4-(((5-fluoro-2-(1-(2-fluorobenzyl)-5-(isoxazol-3-yl)-1H-pyrazol-3-yl)pyrimidin-4-yl)amino)methyl)-2-hydroxyphenyl)cyclopropanesulfonamide]: in test [1], the EC50 lay within 100 to 1000 nM.
As for `CS(=O)(=O)Nc1ccc(CNc2nc(-c3cc(-c4ccon4)n(Cc4ccccc4F)n3)ncc2F)cc1O` [Compound 161, N-(4-(((5-fluoro-2-(1-(2-fluorobenzyl)-5-(isoxazol-3-yl)-1H-pyrazol-3-yl)pyrimidin-4-yl)amino)methyl)-2-hydroxyphenyl)methanesulfonamide], in test [1], the EC50 was in the range of 100 to 1000 nM.
Regarding `O=C(CCNc1nc(-c2cc(-c3ccon3)n(Cc3ccccc3F)n2)ncc1F)OCCN1CCOCC1` [Compound 162, 2-morpholinoethyl 3-((5-fluoro-2-(1-(2-fluorobenzyl)-5-(isoxazol-3-yl)-1H-pyrazol-3-yl)pyrimidin-4-yl)amino)propanoate], the EC50 in test [1] was 100 to 1000 nM.
The same measure, in the same setting: for `COC(=O)CCNc1nc(-c2cc(-c3ccon3)n(Cc3ccccc3F)n2)ncc1F` [Compound 163, methyl 3-((5-fluoro-2-(1-(2-fluorobenzyl)-5-(isoxazol-3-yl)-1H-pyrazol-3-yl)pyrimidin-4-yl)amino)propanoate] the value was less than 100 nM; for `CC(C)OC(=O)CCNc1nc(-c2cc(-c3ccon3)n(Cc3ccccc3F)n2)ncc1F` [Compound 164, isopropyl 3-((5-fluoro-2-(1-(2-fluorobenzyl)-5-(isoxazol-3-yl)-1H-pyrazol-3-yl)pyrimidin-4-yl)amino)propanoate], less than 100 nM; for `CCOC(=O)CCNc1nc(-c2cc(-c3ccon3)n(Cc3ccccc3F)n2)ncc1F` [Compound 165, ethyl 3-((5-fluoro-2-(1-(2-fluorobenzyl)-5-(isoxazol-3-yl)-1H-pyrazol-3-yl)pyrimidin-4-yl)amino)propanoate], 100 to 1000 nM.
Still for that read-out and setting: the value for `C=CCN(C)c1nc(-c2cc(-c3ccon3)n(Cc3ccccc3F)n2)ncc1F` [Compound 166, N-allyl-5-fluoro-2-(1-(2-fluorobenzyl)-5-(isoxazol-3-yl)-1H-pyrazol-3-yl)-N-methylpyrimidin-4-amine] was greater than 1000 nM; that for `CC(=O)c1cc(-c2ncc(F)c(N3CCC(C(=O)O)(C(C)C)CC3)n2)nn1Cc1ccccc1F` [Compound 179] was 100 to 1000 nM.
`CC(=O)c1cc(-c2ncc(F)c(NCC(O)CO)n2)nn1Cc1ccccc1F` (stereo not shown) [Compound 180]: the EC50 in test [1] fell in the range of 100 to 1000 nM.
As for `CC(=O)c1cc(-c2ncc(F)c(N3CCC(C)(C(=O)O)CC3)n2)nn1Cc1ccccc1F` [Compound 181], the EC50 in test [1] lay in the range of 100 to 1000 nM.
On the same count and under the same terms, the value for `Oc1cccc(F)c1Cn1nc(-c2ncc(F)c(O)n2)cc1-c1ccon1` [Compound 182] was greater than 1000 nM; that for `Oc1cccc(F)c1Cn1nc(-c2ncc(F)c(NCC(O)(C(F)(F)F)C(F)(F)F)n2)cc1-c1ccon1` [Compound 183] was greater than 1000 nM; that for `Oc1ccc(Cn2nc(-c3ncc(F)c(NCC(O)(C(F)(F)F)C(F)(F)F)n3)cc2-c2ccon2)c(F)c1` [Compound 184] was greater than 1000 nM.
On the same count and under the same terms, the value for `CC(=O)c1cc(-c2ncc(F)c(NCC(C)(O)C(N)=O)n2)nn1Cc1ccccc1F` (stereo not shown) [Compound 193] was greater than 1000 nM; that for `CC(=O)c1cc(-c2ncc(F)c(N[C@@H](CO)C(N)=O)n2)nn1Cc1ccccc1F` [Compound 194, (S)-2-((2-(5-acetyl-1-(2-fluorobenzyl)-1H-pyrazol-3-yl)-5-fluoropyrimidin-4-yl)amino)-3-hydroxypropanamide] was greater than 1000 nM.
With `NC(=O)[C@](O)(CNc1nc(-c2cc(-c3ccon3)n(Cc3ccc(O)cc3F)n2)ncc1F)C(F)(F)F` [Compound 195], in test [1], the EC50 was greater than 1000 nM.
Consider `CS(=O)(=O)c1cc(-c2ncc(F)c(O)n2)nn1Cc1ccccc1F` [Compound 196], for which the EC50 in test [1] was greater than 30000 nM.
Take `NCC(=O)OCCNc1nc(-c2cc(-c3ccon3)n(Cc3ccccc3F)n2)ncc1F` [Compound 199]: in test [1], the EC50 lay in the range of 100 to 1000 nM.
The same measure, in the same setting: the value for `O=C(CN1CCCCC1)OCCNc1nc(-c2cc(-c3ccon3)n(Cc3ccccc3F)n2)ncc1F` [Compound 200] was greater than 1000 nM; that for `O=C(OCCNc1nc(-c2cc(-c3ccon3)n(Cc3ccccc3F)n2)ncc1F)C1CCCCN1` (stereo not shown) [Compound 202] was 100 to 1000 nM.
The same measure, in the same setting: the value for `O=C(OCCNc1nc(-c2cc(-c3ccon3)n(Cc3ccccc3F)n2)ncc1F)c1ccccn1` [Compound 206] was less than 100 nM.

The record behind these values is patent publication US20190284168A1, “PYRAZOLE DERIVATIES AS SGC STIMULATORS” (IRONWOOD PHARMACEUTICALS, INC., priority 2014, published 2019).
